Data taken from patent US8604200B2, “Diaza-spiro-{4,4}-nonane derivatives as neurokinin (NK1) antagonists” (Janssen Pharmaceutica N.V., priority 2005, dated 2013).

Legend:
Assay type in all cases: cell-based
NK1 = NK1 (Homo sapiens, UniProt P25103); assay: Signal transduction (ST), intracellular Ca++ FLIPR, NK1; conditions: antagonist response, Ca++ transient peak, read-out: NK1 pIC50 (converted)
Experimental: This test evaluates in vitro functional NK1 antagonistic activity. For the measurements of intracellular Ca^++ concentrations the cells were grown on 96-well (black wall/transparent bottom) plates from Costar for 2 days until they reached confluence. The cells were loaded with 2 μM Fluo3 in DMEM containing 0.1% BSA and 2.5 mM probenecid for 1 h at 37° C. They were washed 3× with a Krebs buffer (140 mM NaCl, 1 mM MgCl2×6H2O, 5 mM KCl, 10 mM glucose, 5 mM HEPES; 1.25 mM CaCl2; pH 7.4) containing 2.5 mM probenecid and 0.1% BSA (Ca^++-buffer). The cells were preincubated with a concentration range of antagonists for 20 min at RT and Ca^++-signals after addition of the agonists were measured in a Fluorescence Inage Plate Reader (FLIPR from Molecular Devices, Crawley, England). The peak of the Ca^++-transient was considered as the relevant signal and the mean values of corresponding wells were analysed as described below. The sigmoidal dose response curves were analysed by computerised curve-fitting, using the GraphPad Program. The EC50-value of a compound is the effective dose showing 50% of maximal effect. For mean curves the response to the agonist with the highest potency was normalised to 100%. For antagonist responses the IC50-value was calculated using non-linear regression. The last column indicates—without being limited thereto—for which use the compounds might be most suitable.

NK2 = target: T1, NK2 (Homo sapiens, UniProt P21452); assay: Signal transduction (ST), intracellular Ca++ FLIPR, NK2; conditions: antagonist response, Ca++ transient peak, read-out: NK2 pIC50 (converted)
T1 sequence (P21452 1-398): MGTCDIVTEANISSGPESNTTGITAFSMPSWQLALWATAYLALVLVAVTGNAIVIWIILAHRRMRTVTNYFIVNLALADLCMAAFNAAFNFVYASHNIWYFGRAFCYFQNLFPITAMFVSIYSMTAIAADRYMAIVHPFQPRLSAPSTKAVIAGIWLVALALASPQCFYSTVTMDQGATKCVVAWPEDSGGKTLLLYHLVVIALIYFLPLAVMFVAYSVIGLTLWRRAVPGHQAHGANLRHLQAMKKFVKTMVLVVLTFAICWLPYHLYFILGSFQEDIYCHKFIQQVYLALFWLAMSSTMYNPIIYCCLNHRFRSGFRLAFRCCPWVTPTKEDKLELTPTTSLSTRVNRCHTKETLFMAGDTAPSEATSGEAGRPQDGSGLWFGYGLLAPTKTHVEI

NK3 = target: T2, NK3 (Homo sapiens, UniProt P29371); assay: Signal transduction (ST), intracellular Ca++ FLIPR, NK3; conditions: antagonist response, Ca++ transient peak, read-out: NK3 pIC50 (converted)
T2 sequence (P29371 1-465): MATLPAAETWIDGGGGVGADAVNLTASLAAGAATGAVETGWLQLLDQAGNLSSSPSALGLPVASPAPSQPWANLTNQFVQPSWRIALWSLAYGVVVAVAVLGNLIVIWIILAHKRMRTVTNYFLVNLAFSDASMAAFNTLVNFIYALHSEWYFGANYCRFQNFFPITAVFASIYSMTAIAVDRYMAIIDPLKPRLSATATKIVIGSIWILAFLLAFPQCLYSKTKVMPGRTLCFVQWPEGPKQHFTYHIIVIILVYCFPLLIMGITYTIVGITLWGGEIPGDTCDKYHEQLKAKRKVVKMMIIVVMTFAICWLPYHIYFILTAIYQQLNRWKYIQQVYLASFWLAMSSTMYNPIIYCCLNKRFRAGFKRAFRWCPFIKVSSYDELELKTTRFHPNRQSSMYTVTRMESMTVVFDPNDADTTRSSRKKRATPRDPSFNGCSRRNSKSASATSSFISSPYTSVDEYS

Chain of NK1 (P25103 whole entry): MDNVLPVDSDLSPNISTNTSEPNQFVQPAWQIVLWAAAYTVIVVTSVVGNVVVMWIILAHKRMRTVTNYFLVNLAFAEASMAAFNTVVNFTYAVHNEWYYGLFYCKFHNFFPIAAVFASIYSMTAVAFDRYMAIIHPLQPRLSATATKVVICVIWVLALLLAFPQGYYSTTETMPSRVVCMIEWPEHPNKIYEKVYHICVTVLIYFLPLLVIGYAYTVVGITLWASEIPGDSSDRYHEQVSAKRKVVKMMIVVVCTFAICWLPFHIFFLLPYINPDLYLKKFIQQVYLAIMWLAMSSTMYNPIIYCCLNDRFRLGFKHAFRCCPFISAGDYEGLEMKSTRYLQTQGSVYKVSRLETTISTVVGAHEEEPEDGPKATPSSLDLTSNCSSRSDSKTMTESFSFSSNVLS

SMILES	IC50 (NK1) [nM]	IC50 (NK2) [nM]	IC50 (NK3) [nM]
O=C(c1cc(C(F)(F)F)cc(C(F)(F)F)c1)N1CCC(N2CCC3(CCCN3C(=O)C3CCOC3)C2)CC1Cc1ccccc1 (single isomer, unassigned) [Compound 1-5]	50.1	6310	–
O=C(c1cc(C(F)(F)F)cc(C(F)(F)F)c1)N1CC[C@H](N2CCC3(CCCN3C(=O)c3ccoc3)C2)C[C@H]1Cc1ccccc1 (stereo partly drawn) [Compound 1-7]	100	3160	> 10000
O=C(c1cc(C(F)(F)F)cc(C(F)(F)F)c1)N1CC[C@@H](N2CCC3(CCCN3C(=O)c3cccs3)C2)C[C@H]1Cc1ccccc1 (stereo partly drawn) [Compound 1-9]	50.1	6310	> 10000
O=C(c1cc(C(F)(F)F)cc(C(F)(F)F)c1)N1CC[C@@H](N2CCC3(CCCN3C(=O)c3cnccn3)C2)C[C@H]1Cc1ccccc1 (stereo partly drawn) [Compound 1-12]	200	3980	> 10000
CC(C)(C)C(=O)N1CCC2(CCN([C@H]3CCN(C(=O)c4cc(C(F)(F)F)cc(C(F)(F)F)c4)[C@H](Cc4ccccc4)C3)C2)C1 (stereo partly drawn) [Compound 2-3]	63.1	3160	6310
O=C(c1ccoc1)N1CCC2(CCN([C@H]3CCN(C(=O)c4cc(C(F)(F)F)cc(C(F)(F)F)c4)[C@H](Cc4ccccc4)C3)C2)C1 (stereo partly drawn) [Compound 2-6]	50.1	5010	3160
O=C(c1cccs1)N1CCC2(CCN([C@H]3CCN(C(=O)c4cc(C(F)(F)F)cc(C(F)(F)F)c4)[C@H](Cc4ccccc4)C3)C2)C1 (stereo partly drawn) [Compound 2-7]	158	6310	2510
O=C(c1ccccc1)N1CCC2(CCN([C@H]3CCN(C(=O)c4cc(C(F)(F)F)cc(C(F)(F)F)c4)[C@H](Cc4ccccc4)C3)C2)C1 (stereo partly drawn) [Compound 2-9]	126	5010	3980
O=C(c1cnccn1)N1CCC2(CCN([C@H]3CCN(C(=O)c4cc(C(F)(F)F)cc(C(F)(F)F)c4)[C@H](Cc4ccccc4)C3)C2)C1 (stereo partly drawn) [Compound 2-10]	251	5010	> 10000

The remaining lines, values ahead:

IC50 (NK1) [nM]	IC50 (NK2) [nM]	IC50 (NK3) [nM]	SMILES
63.1	1580	> 10000	O=C(c1cc(C(F)(F)F)cc(C(F)(F)F)c1)N1CCC(N2CCC3(CCCN3C(=O)C3CCOC3)C2)CC1Cc1ccccc1 (single isomer, unassigned) [Compound 1-6]
631	> 10000	> 10000	O=C(c1cc(C(F)(F)F)cc(C(F)(F)F)c1)N1CCC(N2CCC3(CCCN3Cc3ccccc3)C2)CC1Cc1ccccc1 (stereo not drawn) [Compound 1-2]
251	3980	> 10000	O=C(c1cc(C(F)(F)F)cc(C(F)(F)F)c1)N1CCC(N2CCC3(CCCN3C(=O)C3CC3)C2)CC1Cc1ccccc1 (stereo not drawn) [Compound 1-3]
100	6310	> 10000	O=C(c1cc(C(F)(F)F)cc(C(F)(F)F)c1)N1CC[C@@H](N2CCC3(CCCN3C(=O)c3ccoc3)C2)C[C@H]1Cc1ccccc1 (stereo partly drawn) [Compound 1-8]
200	5010	> 10000	O=C(c1cc(C(F)(F)F)cc(C(F)(F)F)c1)N1CC[C@H](N2CCC3(CCCN3C(=O)c3ccccc3)C2)C[C@H]1Cc1ccccc1 (stereo partly drawn) [Compound 1-10]
158	–	> 10000	O=C(c1cc(C(F)(F)F)cc(C(F)(F)F)c1)N1CC[C@@H](N2CCC3(CCCN3C(=O)c3ccccc3)C2)C[C@H]1Cc1ccccc1 (stereo partly drawn) [Compound 1-11]
100	2510	–	O=C(C1CC1)N1CCC2(CCN(C3CCN(C(=O)c4cc(C(F)(F)F)cc(C(F)(F)F)c4)C(Cc4ccccc4)C3)C2)C1 (stereo not drawn) [Compound 2-4]
39.8	2510	2000	O=C(C1CCOC1)N1CCC2(CCN([C@H]3CCN(C(=O)c4cc(C(F)(F)F)cc(C(F)(F)F)c4)[C@H](Cc4ccccc4)C3)C2)C1 (stereo partly drawn) [Compound 2-5]
100	6310	3980	Cc1nnsc1C(=O)N1CCC2(CCN([C@H]3CCN(C(=O)c4cc(C(F)(F)F)cc(C(F)(F)F)c4)[C@H](Cc4ccccc4)C3)C2)C1 (stereo partly drawn) [Compound 2-8]
